The IC50 is the point on the concentration scale where inhibition reaches its midpoint. High values mean weaker potency in that assay, low ones greater potency in that assay.

In this assay the target is T1, MAGL (Homo sapiens, UniProt Q99685).
T1 sequence (Q99685 1-303): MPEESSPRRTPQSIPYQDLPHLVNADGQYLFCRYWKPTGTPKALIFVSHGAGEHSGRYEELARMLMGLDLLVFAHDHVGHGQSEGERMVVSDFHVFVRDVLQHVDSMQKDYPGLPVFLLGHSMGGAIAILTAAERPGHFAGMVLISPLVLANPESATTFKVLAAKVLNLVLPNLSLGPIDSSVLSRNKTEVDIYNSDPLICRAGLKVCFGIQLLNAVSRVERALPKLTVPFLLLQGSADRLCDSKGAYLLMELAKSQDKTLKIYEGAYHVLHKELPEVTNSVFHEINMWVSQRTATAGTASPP
Kind of assay: 2-AG assay (MAGL inhibitory activity, hydrolysis of 2-arachidonoylglycerol to arachidonic acid followed by mass spectrometry). In kind it is biochemical. The conditions noted are these: 8 μM 2-arachidonoylglycerol, 15 min pre-incubation, 30 min incubation at RT, RapidFire MS readout. In a few lines:
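Human MAGL ([…] final) pre-incubated 15 min at RT with compound in 50 mM TRIS, 1 mM EDTA, 0.01% Tween-20, 2.5% DMSO; 8 μM 2-AG then added for 30 min at RT. Acetonitrile quench with d8-arachidonic acid; arachidonic acid measured by RapidFire SPE–MS/MS, activity from arachidonic acid/d8 ratio.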
Turning to `O=C(N1CC2(CC(n3cnc(C4CC4)n3)C2)C1)N1CC2(C1)CN(S(=O)(=O)c1ccc(C(F)(F)F)nc1)C2` [Example 255, [6-(3-cyclopropyl-1,2,4-triazol-1-yl)-2-azaspiro[3.3]heptan-2-yl]-[2-[[6-(trifluoromethyl)-3-pyridyl]sulfonyl]-2,6-diazaspiro[3.3]heptan-6-yl]methanone], the IC50 was found to be 17.2 nM.

`O=C(N1CC2(CC(n3cnc(C4CC4)n3)C2)C1)N1CC2(C1)CN(S(=O)(=O)NCc1ccc(F)cc1)C2` [Example 256, 6-[6-(3-cyclopropyl-1,2,4-triazol-1-yl)-2-azaspiro[3.3]heptane-2-carbonyl]-N-[(4-fluorophenyl)methyl]-2,6-diazaspiro[3.3]heptane-2-sulfonamide]: the IC50 worked out at 17.3 nM.

In turn, `NS(=O)(=O)c1ccccc1CN1CC2(C1)CN(C(=O)N1CC3(CC(n4cnc(C5CC5)n4)C3)C1)C2` [Example 257, 2-[[2-[6-(3-cyclopropyl-1,2,4-triazol-1-yl)-2-azaspiro[3.3]heptane-2-carbonyl]-2,6-diazaspiro[3.3]heptan-6-yl]methyl] benzenesulfonamide] gave an IC50 of 18 nM.

`O=C(N1CC2(CC(n3cnc(C4CC4)n3)C2)C1)N1CC2(CN(Cc3ncc(F)cc3F)C2)C1` [Example 258, [6-(3-cyclopropyl-1,2,4-triazol-1-yl)-2-azaspiro[3.3]heptan-2-yl]-[6-[(3,5-difluoro-2-pyridyl)methyl]-2,6-diazaspiro[3.3]heptan-2-yl]methanone] returned an IC50 of 19.4 nM.

`O=C(N1CCC(CNS(=O)(=O)c2ccc(OC(F)(F)F)cc2)CC1)N1CC2(CC(n3cnc(C4CC4)n3)C2)C1` [Example 259, N-[[1-[6-(3-cyclopropyl-1,2,4-triazol-1-yl)-2-azaspiro[3.3]heptane-2-carbonyl]-4-piperidyl]methyl]-4-(trifluoromethoxy) benzenesulfonamide] displayed an IC50 of 21.8 nM.

For `O=C(N1CC2(CC(n3cnc(C4CC4)n3)C2)C1)N1CC2(C1)CN(S(=O)(=O)NC1(C(F)(F)F)CC1)C2` [Example 260, 6-[6-(3-cyclopropyl-1,2,4-triazol-1-yl)-2-azaspiro[3.3]heptane-2-carbonyl]-N-[1-(trifluoromethyl)cyclopropyl]-2,6-diazaspiro[3.3]heptane-2-sulfonamide], the IC50 is 23.1 nM. The IC50 values of the last two molecules are within 1.5-fold of each other.

As for `O=C(N1CC(c2ccn(CC(F)(F)F)c(=O)c2)C1)N1CC2(CC(n3cnc(C4CC4)n3)C2)C1` [Example 261, 4-[1-[6-(3-cyclopropyl-1,2,4-triazol-1-yl)-2-azaspiro[3.3]heptane-2-carbonyl]azetidin-3-yl]-1-(2,2,2-trifluoroethyl)pyridin-2-one], half-maximal inhibition (IC50) required 24.2 nM.

With `O=C(N1CC(NCc2ccc(C(F)(F)F)cc2F)C1)N1CC2(CC(n3cnc(C4CC4)n3)C2)C1` [Example 262, [6-(3-cyclopropyl-1,2,4-triazol-1-yl)-2-azaspiro[3.3]heptan-2-yl]-[3-[[2-fluoro-4-(trifluoromethyl)phenyl]methylamino]azetidin-1-yl]methanone], 25.2 nM corresponded to half-maximal inhibition (IC50). The IC50 values of the last two molecules are within 1.5-fold of each other.

`O=C(N1CC2(CC(n3cnc(C4CC4)n3)C2)C1)N1CC2(C1)CN(S(=O)(=O)c1cnccc1C(F)(F)F)C2` [Example 263, [6-(3-cyclopropyl-1,2,4-triazol-1-yl)-2-azaspiro[3.3]heptan-2-yl]-[2-[[4-(trifluoromethyl)-3-pyridyl]sulfonyl]-2,6-diazaspiro[3.3]heptan-6-yl]methanone] yielded an IC50 of 27.2 nM. This IC50 and that of the molecule before are within 1.5-fold of each other.

With `COC(=O)c1ccccc1S(=O)(=O)N1CC2(CN(C(=O)N3CC4(CC(n5cnc(C6CC6)n5)C4)C3)C2)C1` [Example 264, methyl 2-[[6-[6-(3-cyclopropyl-1,2,4-triazol-1-yl)-2-azaspiro[3.3]heptane-2-carbonyl]-2,6-diazaspiro[3.3]heptan-2-yl]sulfonyl]benzoate], half-maximal inhibition (IC50) was put at 27.2 nM.

Molecule `O=C(N1CC2(CC(n3cnc(C4CC4)n3)C2)C1)N1CC2(C1)CN(S(=O)(=O)Cc1ccccc1)C2` [Example 265, (2-benzylsulfonyl-2,6-diazaspiro[3.3]heptan-6-yl)-[6-(3-cyclopropyl-1,2,4-triazol-1-yl)-2-azaspiro[3.3]heptan-2-yl]methanone] yielded an IC50 of 27.5 nM.

Turning to `CS(=O)(=O)c1ccc(COC2CN(C(=O)N3CC4(CC(n5cnc(C6CC6)n5)C4)C3)C2)c(F)c1` [Example 266, [6-(3-cyclopropyl-1,2,4-triazol-1-yl)-2-azaspiro[3.3]heptan-2-yl]-[3-[(2-fluoro-4-methylsulfonyl-phenyl)methoxy]azetidin-1-yl]methanone], the IC50 was 29 nM.

In turn, `O=C(N1CC2(CC(Nc3ccc(C(F)(F)F)nn3)C2)C1)N1CC2(CC(n3cnc(C4CC4)n3)C2)C1` [Example 267, [6-(3-cyclopropyl-1,2,4-triazol-1-yl)-2-azaspiro[3.3]heptan-2-yl]-[6-[[6-(trifluoromethyl)pyridazin-3-yl]amino]-2-azaspiro[3.3]heptan-2-yl]methanone] displayed an IC50 of 30.7 nM.

With `O=C(N1CC2(CC(n3cnc(C4CC4)n3)C2)C1)N1CC2(C1)CN(S(=O)(=O)c1cncc(C(F)(F)F)c1)C2` [Example 268, [6-(3-cyclopropyl-1,2,4-triazol-1-yl)-2-azaspiro[3.3]heptan-2-yl]-[2-[[5-(trifluoromethyl)-3-pyridyl]sulfonyl]-2,6-diazaspiro[3.3]heptan-6-yl]methanone], the IC50 came out at 32.1 nM.

`CC1(NS(=O)(=O)N2CC3(CN(C(=O)N4CC5(CC(n6cnc(C7CC7)n6)C5)C4)C3)C2)CC1` [Example 269, 6-[6-(3-cyclopropyl-1,2,4-triazol-1-yl)-2-azaspiro[3.3]heptane-2-carbonyl]-N-(1-methylcyclopropyl)-2,6-diazaspiro[3.3]heptane-2-sulfonamide] yielded an IC50 of 32.2 nM.

As for `O=C(N1CC(Oc2ccc(C(F)(F)F)nc2)C1)N1CC2(CC(n3cnc(C4CC4)n3)C2)C1` [Example 270, (6-(3-cyclopropyl-1H-1,2,4-triazol-1-yl)-2-azaspiro[3.3]heptan-2-yl)(3-((6-(trifluoromethyl)pyridin-3-yl)oxy)azetidin-1-yl)methanone], half-maximal inhibition (IC50) was put at 32.7 nM.

As for `O=C(N1CCC(CNS(=O)(=O)c2ccc(Cl)cc2)CC1)N1CC2(CC(n3cnc(C4CC4)n3)C2)C1` [Example 271], inhibition was half-maximal at 33.8 nM (IC50). This IC50 and that of the molecule before are within 1.5-fold of each other.

In turn, `O=C(N1CC2(CC(n3cnc(C4CC4)n3)C2)C1)N1CC2(C1)CN(S(=O)(=O)CCc1ccc(F)cc1)C2` [Example 272, [6-(3-cyclopropyl-1,2,4-triazol-1-yl)-2-azaspiro[3.3]heptan-2-yl]-[2-[2-(4-fluorophenyl)ethylsulfonyl]-2,6-diazaspiro[3.3]heptan-6-yl]methanone] came in with a 50% inhibitory concentration (IC50) of 34.3 nM.

On to `O=C(N1CC2(CC(n3cnc(C4CC4)n3)C2)C1)N1CC2(C1)CN(S(=O)(=O)c1ccc(F)c(F)c1)C2` [Example 273, [6-(3-cyclopropyl-1,2,4-triazol-1-yl)-2-azaspiro[3.3]heptan-2-yl]-[2-(3,4-difluorophenyl)sulfonyl-2,6-diazaspiro[3.3]heptan-6-yl]methanone], for which the IC50 stood at 34.4 nM.

In the case of `O=C(N1CC(Oc2ccnc(C3CC3)n2)C1)N1CC2(CC(n3cnc(C4CC4)n3)C2)C1` [Example 274, [3-(2-cyclopropylpyrimidin-4-yl)oxyazetidin-1-yl]-[6-(3-cyclopropyl-1,2,4-triazol-1-yl)-2-azaspiro[3.3]heptan-2-yl]methanone], 34.8 nM corresponded to half-maximal inhibition (IC50).

Turning to `O=C(c1ccc(F)cc1C(F)(F)F)N1CC2(C1)CN(C(=O)N1CC3(CC(n4cnc(C5CC5)n4)C3)C1)C2` [Example 275, [2-[6-(3-cyclopropyl-1,2,4-triazol-1-yl)-2-azaspiro[3.3]heptane-2-carbonyl]-2,6-diazaspiro[3.3]heptan-6-yl]-[4-fluoro-2-(trifluoromethyl)phenyl] methanone], the half-inhibitory concentration (IC50) stood at 35.3 nM. The IC50 values of the last two molecules are within 1.5-fold of each other.

Turning to `O=C(N1CC(CNS(=O)(=O)c2ccc(C(F)(F)F)cc2)C1)N1CC2(CC(n3cnc(C4CC4)n3)C2)C1` [Example 276, N-[[1-[6-(3-cyclopropyl-1,2,4-triazol-1-yl)-2-azaspiro[3.3]heptane-2-carbonyl]azetidin-3-yl]methyl]-4-(trifluoromethyl)benzene-sulfonamide], the IC50 turned out to be 35.7 nM.

Molecule `O=C(N1CC2(CC(NC(=O)C3(C(F)(F)F)CC3)C2)C1)N1CC2(CC(n3cnc(C4CC4)n3)C2)C1` [Example 277, N-[2-[6-(3-cyclopropyl-1,2,4-triazol-1-yl)-2-azaspiro[3.3]heptane-2-carbonyl]-2-azaspiro[3.3]heptan-6-yl]-1-(trifluoromethyl) cyclo-propanecarboxamide] gave an IC50 of 37.2 nM.

`O=C(N1CC2(CC(n3cnc(C4CC4)n3)C2)C1)N1CC2(C1)CN(S(=O)(=O)c1cnccc1Cl)C2` [Example 278, [2-[(4-chloro-3-pyridyl)sulfonyl]-2,6-diazaspiro[3.3]heptan-6-yl]-[6-(3-cyclopropyl-1,2,4-triazol-1-yl)-2-azaspiro[3.3]heptan-2-yl]methanone] gave an IC50 of 37.3 nM.

`CC(C)(C(=O)O)c1cccc(OC2CN(C(=O)N3CC4(CC(n5cnc(C6CC6)n5)C4)C3)C2)c1` [Example 279, 2-[3-[1-[6-(3-cyclopropyl-1,2,4-triazol-1-yl)-2-azaspiro[3.3]heptane-2-carbonyl]azetidin-3-yl]oxyphenyl]-2-methyl-propanoic acid] registered an IC50 of 38 nM.

`O=C(N1CC(Oc2ccc(C3CC3)nn2)C1)N1CC2(CC(n3cnc(C4CC4)n3)C2)C1` [Example 280, [3-(6-cyclopropylpyridazin-3-yl)oxyazetidin-1-yl]-[6-(3-cyclopropyl-1,2,4-triazol-1-yl)-2-azaspiro[3.3]heptan-2-yl]methanone]: the IC50 is 39.4 nM.

The values are drawn from US20240199587A1, “HETEROCYCLIC COMPOUNDS” (Hoffmann-La Roche Inc., priority 2021, published 2024).
